Data: ChEMBL document CHEMBL1156705, “Part 1: Effect of vitamin C on the biological activity of two euryfurylbenzoquinones on TLT, a murine hepatoma cell line” (2008)

Legend:
Type in all cases: functional
[1] = Cytotoxicity against mouse TLT cells assessed as cytoplasmic LDH release at 50 ug/ml after 24 hrs
[2] = Cytotoxicity against mouse TLT cells assessed as cytoplasmic LDH release at 50 ug/ml after 24 hrs in presence of 2 mM vitamin C
[3] = Cytotoxicity against mouse TLT cells assessed as decrease in intracellular ATP level at 1 to 50 ug/ml after 24 hrs by bioluminescence assay relative to control; design: scale not given: the % may be the effect or the level left
[4] = Cytotoxicity against mouse TLT cells assessed as decrease in intracellular ATP level at 1 to 50 ug/ml after 24 hrs by bioluminescence assay relative to control in presence of 2 mM vitamin C; design: scale not given: the % may be the effect or the level left
[5] = Cytotoxicity against mouse TLT cells assessed as decrease in intracellular reduced glutathione level at 1 to 50 ug/ml after 24 hrs by ortho-phthalaldehyde method relative to control; design: scale not given: the % may be the effect or the level left
[6] = Cytotoxicity against mouse TLT cells assessed as decrease in intracellular reduced glutathione level at 1 to 50 ug/ml after 24 hrs by ortho-phthalaldehyde method relative to control in presence of 2 mM vitamin C; design: scale not given: the % may be the effect or the level left
[7] = Induction of apoptosis in mouse TLT cells assessed as effect on caspase 3 activity at 1 ug/ml after 24 hrs by fluorometric assay
[8] = Induction of apoptosis in mouse TLT cells assessed as effect on caspase 3 activity at 1 ug/ml after 24 hrs by fluorometric assay in presence of 2 mM vitamin C
[9] = Induction of apoptosis in mouse TLT cells assessed as effect on caspase 3 activity at 50 ug/ml after 24 hrs by fluorometric assay
[10] = Induction of apoptosis in mouse TLT cells assessed as effect on caspase 3 activity at 50 ug/ml after 24 hrs by fluorometric assay in presence of 2 mM vitamin C
[11] = Induction of apoptosis in mouse TLT cells assessed as effect on caspase 3 activity at 100 ug/ml after 24 hrs by fluorometric assay
[12] = Induction of apoptosis in mouse TLT cells assessed as effect on caspase 3 activity at 100 ug/ml after 24 hrs by fluorometric assay in presence of 2 mM vitamin C
[13] = Induction of apoptosis in mouse TLT cells assessed as increase in caspase 3 activity at 50 ug/ml after 24 hrs by fluorometric assay relative to basal level in presence of 2 mM vitamin C
[14] = Induction of apoptosis in mouse TLT cells assessed as increase in caspase 3 activity at 50 ug/ml after 24 hrs by fluorometric assay relative to basal level
[15] = Cytotoxicity against mouse TLT cells assessed as cytoplasmic LDH release at 1 ug/ml after 24 hrs
[16] = Cytotoxicity against mouse TLT cells assessed as decrease in intracellular ATP level at 50 ug/ml after 24 hrs by bioluminescence assay relative to control in presence of 2 mM vitamin C; design: scale not given: the % may be the effect or the level left
[17] = Cytotoxicity against mouse TLT cells assessed as decrease in intracellular reduced glutathione level at 50 ug/ml after 24 hrs by ortho-phthalaldehyde method relative to control in presence of 2 mM vitamin C; design: scale not given: the % may be the effect or the level left

CC1(C)CCCC2(C)c3coc(C4=CC(=O)C=CC4=O)c3CCC12 (centres undefined)
Activity [1]: 28%
Activity [2]: 28%
Activity [3]: 40%
Activity [4]: 40%
Activity [5]: 60%
Activity [6]: 60%
Activity [7]: 21.3 mU
Activity [8]: 15.1 mU
Activity [9]: 37.2 mU
Activity [10]: 25.6 mU
Activity [11]: 51.1 mU
Activity [12]: 57.8 mU
Activity [13]: 3.5
Activity [14]: 2.5

CC1(C)CCCC2(C)c3coc(C4=C([N+](=O)[O-])C(=O)C=CC4=O)c3CCC12 (centres undefined)
Activity [15]: 28%
Activity [2]: 60%
Activity [16]: 50%
Activity [17]: 25%
Activity [7]: 31.9 mU
Activity [8]: 12.8 mU
Activity [9]: 27.4 mU
Activity [10]: 10.7 mU
Activity [11]: 22.5 mU
Activity [12]: 1 mU
